Experiments:
D1 = D1 (Homo sapiens, UniProt P21728); assay: Radioligand binding for selectivity, D1; settings: read-out: Binding affinity (Inhibition rate % at 10 μM) D1
hD2L receptor = biological target: T1, hD2L receptor (Homo sapiens, UniProt P14416); assay: Radioligand binding, dopamine D2 ([3H]spiperone); settings: read-out: Binding affinity (Inhibition rate % at 10 μM) D2
T1 construct: purchased BioSignal Packard Inc., Montreal, Canada

5-HT7 = biological target: T2, 5-HT7 (Homo sapiens, UniProt P34969); assay: Radioligand binding, 5-HT7 ([3H]LSD)
T2 construct: purchased Euroscreen/BioSignal Packard Inc
T2 sequence (P34969 whole entry): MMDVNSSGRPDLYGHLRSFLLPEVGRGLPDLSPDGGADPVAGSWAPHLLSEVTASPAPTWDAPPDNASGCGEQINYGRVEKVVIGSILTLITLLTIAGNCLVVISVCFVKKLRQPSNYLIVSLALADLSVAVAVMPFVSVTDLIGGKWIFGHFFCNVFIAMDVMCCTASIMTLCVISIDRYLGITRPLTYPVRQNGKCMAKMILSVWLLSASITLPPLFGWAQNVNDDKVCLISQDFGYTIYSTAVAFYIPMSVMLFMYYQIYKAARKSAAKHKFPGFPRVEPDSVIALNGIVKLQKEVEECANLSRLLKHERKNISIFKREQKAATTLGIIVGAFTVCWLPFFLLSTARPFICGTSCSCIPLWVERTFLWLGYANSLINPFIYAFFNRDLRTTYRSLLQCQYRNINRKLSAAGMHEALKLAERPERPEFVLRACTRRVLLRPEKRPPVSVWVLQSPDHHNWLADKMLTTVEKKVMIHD
Description: (§1) Radioligand bindings were performed according to the test method provided by the supplier of receptor membrane (Euroscreen/BioSignal Packard Inc.).

hD4.2 receptor = biological target: T3, hD4.2 receptor (Homo sapiens, UniProt P21917, DEL265-296); assay: Radioligand binding, dopamine D4 ([3H]YM-09151-2); settings: read-out: Binding affinity (Inhibition rate % at 10 μM) D4
T3 construct: purchased BioSignal Packard Inc., Montreal, Canada
T3 sequence (P21917 with tags, fused parts or gaps DEL265-296): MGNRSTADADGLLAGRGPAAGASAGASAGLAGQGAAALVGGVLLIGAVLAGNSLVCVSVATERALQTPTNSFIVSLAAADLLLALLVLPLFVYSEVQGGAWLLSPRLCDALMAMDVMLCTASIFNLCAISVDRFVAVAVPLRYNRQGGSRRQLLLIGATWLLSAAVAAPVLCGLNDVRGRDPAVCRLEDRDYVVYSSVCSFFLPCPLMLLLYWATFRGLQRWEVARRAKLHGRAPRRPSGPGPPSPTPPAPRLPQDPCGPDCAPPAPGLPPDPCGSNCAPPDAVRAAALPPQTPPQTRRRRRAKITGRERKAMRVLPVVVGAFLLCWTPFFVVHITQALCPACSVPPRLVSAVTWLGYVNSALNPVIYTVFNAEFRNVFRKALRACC

5-HT1a = biological target: T4, 5-HT1a (Homo sapiens, UniProt P08908); assay: Radioligand binding, 5-HT1a ([3H]8-OH-DPAT); settings: read-out: Binding affinity (Inhibition rate % at 10 μM) 5HT1a
T4 construct: purchased Euroscreen/BioSignal Packard Inc
T4 sequence (P08908 1-422): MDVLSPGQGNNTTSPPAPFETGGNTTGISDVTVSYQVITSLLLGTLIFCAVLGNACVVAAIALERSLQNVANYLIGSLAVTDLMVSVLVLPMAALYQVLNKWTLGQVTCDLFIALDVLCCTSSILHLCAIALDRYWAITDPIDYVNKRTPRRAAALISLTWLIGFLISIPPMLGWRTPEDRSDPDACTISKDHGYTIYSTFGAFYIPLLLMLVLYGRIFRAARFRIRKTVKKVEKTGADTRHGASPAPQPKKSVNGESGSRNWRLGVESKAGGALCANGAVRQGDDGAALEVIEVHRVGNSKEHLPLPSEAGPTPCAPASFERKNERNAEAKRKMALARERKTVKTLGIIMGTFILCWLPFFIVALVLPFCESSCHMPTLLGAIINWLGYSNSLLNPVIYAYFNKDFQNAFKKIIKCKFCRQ
Description: as §1

[1] = biological target: T5, human serotonin 5-HT6 receptor (Homo sapiens, UniProt P50406); assay: [3H]LSD binding at cloned 5-HT6 receptors
T5 construct: made in house; host or cells: Sf21 insect cells (pBacPAK8 baculovirus vector)
T5 sequence (P50406 whole entry): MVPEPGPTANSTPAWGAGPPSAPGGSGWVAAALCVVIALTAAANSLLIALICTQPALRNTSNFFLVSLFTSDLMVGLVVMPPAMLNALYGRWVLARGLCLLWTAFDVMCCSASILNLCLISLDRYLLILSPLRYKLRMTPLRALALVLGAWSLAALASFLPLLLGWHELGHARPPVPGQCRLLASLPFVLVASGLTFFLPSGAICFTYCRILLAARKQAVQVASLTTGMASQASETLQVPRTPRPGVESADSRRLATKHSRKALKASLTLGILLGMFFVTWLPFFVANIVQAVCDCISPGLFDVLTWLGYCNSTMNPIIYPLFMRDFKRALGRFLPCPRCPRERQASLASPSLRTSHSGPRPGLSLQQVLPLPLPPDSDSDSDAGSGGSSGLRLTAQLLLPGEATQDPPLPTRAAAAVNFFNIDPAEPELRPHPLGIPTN

hD3 receptor = biological target: T6, hD3 receptor (Homo sapiens, UniProt P35462); assay: Radioligand binding, dopamine D3 ([3H]spiperone); settings: read-out: Binding affinity (Inhibition rate % at 10 μM) D3
T6 construct: purchased BioSignal Packard Inc., Montreal, Canada
T6 sequence (P35462 whole entry): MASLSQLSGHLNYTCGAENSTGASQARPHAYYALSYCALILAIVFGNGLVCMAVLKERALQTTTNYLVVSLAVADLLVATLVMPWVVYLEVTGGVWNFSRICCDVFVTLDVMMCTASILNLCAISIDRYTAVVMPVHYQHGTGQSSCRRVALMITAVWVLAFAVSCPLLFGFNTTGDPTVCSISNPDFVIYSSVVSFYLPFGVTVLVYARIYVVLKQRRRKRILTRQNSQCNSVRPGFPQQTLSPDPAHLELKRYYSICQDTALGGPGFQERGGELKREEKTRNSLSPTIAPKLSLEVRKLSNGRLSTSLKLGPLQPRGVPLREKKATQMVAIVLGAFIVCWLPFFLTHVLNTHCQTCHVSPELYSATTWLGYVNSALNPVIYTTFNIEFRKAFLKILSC

5-HT2a = biological target: T7, 5-HT2a (Homo sapiens, UniProt P28223); assay: Radioligand binding, 5-HT2a ([3H]Ketanserin); settings: read-out: Binding affinity (Inhibition rate % at 10 μM) 5HT2a
T7 construct: purchased Euroscreen/BioSignal Packard Inc
T7 sequence (P28223 whole entry): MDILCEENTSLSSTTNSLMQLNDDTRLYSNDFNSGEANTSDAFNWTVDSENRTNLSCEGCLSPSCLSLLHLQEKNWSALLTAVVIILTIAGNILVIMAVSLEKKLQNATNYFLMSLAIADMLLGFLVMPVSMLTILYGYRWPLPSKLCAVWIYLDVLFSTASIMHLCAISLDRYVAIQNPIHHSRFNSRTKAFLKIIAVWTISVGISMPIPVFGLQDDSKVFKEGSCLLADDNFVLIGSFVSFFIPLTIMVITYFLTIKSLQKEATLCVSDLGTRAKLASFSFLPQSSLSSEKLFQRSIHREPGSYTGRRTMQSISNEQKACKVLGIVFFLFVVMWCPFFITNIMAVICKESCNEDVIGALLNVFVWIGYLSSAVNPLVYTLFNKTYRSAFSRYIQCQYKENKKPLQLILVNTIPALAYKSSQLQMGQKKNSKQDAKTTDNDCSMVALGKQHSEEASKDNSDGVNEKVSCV
Description: as §1

5-HT2c = biological target: T8, 5-HT2c (Homo sapiens, UniProt P28335); assay: Radioligand binding, 5-HT2c ([3H]Mesulergine); settings: read-out: Binding affinity (Inhibition rate % at 10 μM) 5HT2c
T8 construct: purchased Euroscreen/BioSignal Packard Inc
T8 sequence (P28335 33-458): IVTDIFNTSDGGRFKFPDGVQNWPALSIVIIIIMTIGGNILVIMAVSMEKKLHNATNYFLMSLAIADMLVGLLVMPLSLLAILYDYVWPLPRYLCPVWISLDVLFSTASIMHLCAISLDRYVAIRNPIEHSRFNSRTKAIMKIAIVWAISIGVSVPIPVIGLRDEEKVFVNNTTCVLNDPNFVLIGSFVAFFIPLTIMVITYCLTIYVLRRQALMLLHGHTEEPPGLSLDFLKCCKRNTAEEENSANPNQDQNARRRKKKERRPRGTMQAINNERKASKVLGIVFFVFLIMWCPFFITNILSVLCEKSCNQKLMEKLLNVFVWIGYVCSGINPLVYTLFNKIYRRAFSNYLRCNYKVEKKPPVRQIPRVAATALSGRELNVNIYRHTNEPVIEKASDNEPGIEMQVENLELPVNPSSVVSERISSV
Description: as §1

5-HT6 receptors = 5-HT6 receptors (Homo sapiens, UniProt P50406); settings: antagonist, literature; cited from earlier work
Chain of 5-HT6 receptors (P50406 whole entry): as the sequence (P50406 whole entry) above

rats [2] = settings: literature; cited from earlier work
rats [3] = settings: literature; cited from earlier work; remark: listed apart in the source
[4] = test system: rat maximal electroseizure threshold; settings: literature, cited from earlier work
[5] = test system: extracellular glutamate levels; settings: frontal cortex and dorsal hippocampus, literature; cited from earlier work
rats [6] = settings: water maze, literature; cited from earlier work
[7] = cited from earlier work

Chain of D1 (P21728 whole entry): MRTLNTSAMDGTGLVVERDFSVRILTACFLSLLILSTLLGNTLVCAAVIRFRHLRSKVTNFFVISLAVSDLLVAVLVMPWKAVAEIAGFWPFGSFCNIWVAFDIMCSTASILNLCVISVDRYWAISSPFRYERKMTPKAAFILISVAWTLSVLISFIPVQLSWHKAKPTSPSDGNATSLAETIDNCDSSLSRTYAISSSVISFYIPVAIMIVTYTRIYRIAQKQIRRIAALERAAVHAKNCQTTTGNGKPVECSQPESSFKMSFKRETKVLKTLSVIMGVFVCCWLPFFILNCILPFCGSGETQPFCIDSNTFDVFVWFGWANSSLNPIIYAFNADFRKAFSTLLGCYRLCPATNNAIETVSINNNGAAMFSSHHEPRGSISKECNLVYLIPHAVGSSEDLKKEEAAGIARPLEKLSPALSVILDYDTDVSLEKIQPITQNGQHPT
T1 sequence (P14416 whole entry): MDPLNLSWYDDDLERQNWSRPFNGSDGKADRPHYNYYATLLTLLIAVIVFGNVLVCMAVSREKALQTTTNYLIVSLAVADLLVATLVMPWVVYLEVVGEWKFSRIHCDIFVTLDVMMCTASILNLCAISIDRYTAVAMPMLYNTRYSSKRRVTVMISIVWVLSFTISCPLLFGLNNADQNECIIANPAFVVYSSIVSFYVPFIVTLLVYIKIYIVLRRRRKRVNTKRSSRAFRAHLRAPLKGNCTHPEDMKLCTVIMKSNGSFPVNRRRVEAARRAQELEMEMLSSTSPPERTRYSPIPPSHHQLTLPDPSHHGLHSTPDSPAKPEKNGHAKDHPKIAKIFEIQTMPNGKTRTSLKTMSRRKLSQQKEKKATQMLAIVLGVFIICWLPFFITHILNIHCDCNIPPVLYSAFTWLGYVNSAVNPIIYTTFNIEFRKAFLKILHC

SMILES: COc1cc(Cl)c2c(c1)NC(=O)C(C)(c1ccc(Br)cc1)C2=O (stereo not shown) [Example 52, 3-(4-bromo-phenyl)-5-chloro-7-methoxy-3-methyl-1H-quinoline-2,4-dione]
- inhibition at 10 µM (D1): 41.5%
- melting point: 239 to 240 °C
- inhibition at 10 µM (hD2L receptor): 9.3%
- inhibition at 10 µM (5-HT7; read-out: Binding affinity (Inhibition rate % at 10 μM) 5HT7): 8.8%
- inhibition at 10 µM (hD4.2 receptor): 0%
- inhibition at 10 µM (5-HT1a): 7.8%
- IC50 ([1]; [3H]LSD 1.87 nM, cloned receptor membranes, 37° C., 60 min, read-out: IC50): 73 nM
- 5-HT6 affinity compared with known selective antagonists ([1]; in words): almost same affinities as or better affinities than known selective antagonists
- inhibition at 10 µM ([1]; read-out: Binding affinity (Inhibition rate % at 10 μM) 5HT6): 89.6%
- inhibition at 10 µM (hD3 receptor): 7.4%
- inhibition at 10 µM (5-HT2a): 30.6%
- inhibition at 10 µM (5-HT2c): 20%

SMILES: COc1ccc2c(c1)c(CCN(C)C)cn2S(=O)(=O)c1ccccc1 [MS-245]
- pA2 (5-HT6 receptors): 8.88

SMILES: CNc1cc(NS(=O)(=O)c2ccc(N)cc2)nc(NC)n1 [Ro 04-6790]
- behavior of yawning, stretching, and chewing (rats [2]): capable of inducing this same effect
- food intake (rats [3]): decreased food intake
- anticonvulsant activity [4]: possess anticonvulsant activity

SMILES: COc1ccc(NS(=O)(=O)c2sc3ccc(Cl)cc3c2C)cc1N1CCNCC1 [SB-271046, reference compound]
- inhibition at 10 µM (D1): 49.7%
- inhibition at 10 µM (hD2L receptor): 17.3%
- Binding affinity (Inhibition rate % at 10 μM) 5HT7 (5-HT7; 10 μM): 34.9%
- extracellular glutamate levels [5]: increased extracellular glutamate levels in frontal cortex and dorsal hippocampus by several fold
- retention of a previously learned task (rats [6]): significant improvement in retention of a previously learned task
- inhibition at 10 µM (hD4.2 receptor): 14.2%
- inhibition at 10 µM (5-HT1a): 84.2%
- inhibition at 10 µM (hD3 receptor): 66.2%
- inhibition at 10 µM (5-HT2a): 60.1%
- oral bioavailability ([7]; literature): > 80%
- inhibition at 10 µM (5-HT2c): 64.3%
- anticonvulsant activity [4]: possess anticonvulsant activity

SMILES: COc1ccc(S(=O)(=O)Nc2cc(Br)cc(F)c2Br)cc1N1CCNCC1 [SB-357134]
- retention of a previously learned task (rats [6]): significant improvement in retention of a previously learned task
- clearance (in words) ([7]; in vivo): low clearance rate
- seizure threshold ([4]; rat maximal electroseizure threshold, oral administration): potent and dose-dependent increase in seizure threshold
